From ChEMBL document CHEMBL3885861, “Open TG-GATES”

Species on record: Rattus norvegicus
Test: Open TG-GATES - Regimen: Single
Format: toxicity, organism-based, Sprague-Dawley
Parameters: regimen Single, gender Male, age 6 weeks
Conditions: in vivo, po, route gavage; for gamma-GTP / ALP / AST / BUN / CRE / Ca / Cl / DBIL / GLC / IP / K / LDH / Na / PL / RALB / TBIL / TC / TG / TP: tissue Plasma; for APTT / Bas / Eos / Fbg / Ht / MCH / MCHC / MCV / Mono / PT / Plat / RBC / Ret / WBC: tissue Blood; for KIDNEY_L / KIDNEY_R / KIDNEY_TOTAL: tissue Kidney; for LIVER: tissue Liver

SMILES: CC(=O)Nc1nnc(S(N)(=O)=O)s1 [ACETAZOLAMIDE]
- gamma-GTP (0 mg/kg, 24 h, dose level Control): 2.2 IU/L
- TERMINAL_BW (60 mg/kg, 3 h, dose level Low): 208.4 g
- APTT (60 mg/kg, 3 h, dose level Low): 22.2 s
- Bas (60 mg/kg, 3 h, dose level Low): 0%
- Eos (60 mg/kg, 3 h, dose level Low): 1%
- Fbg (60 mg/kg, 3 h, dose level Low): 313.4 mg/dL
- Ht (60 mg/kg, 3 h, dose level Low): 40.8%
- MCH (60 mg/kg, 3 h, dose level Low): 21.4 pg
- MCHC (60 mg/kg, 3 h, dose level Low): 32.1%
- MCV (60 mg/kg, 3 h, dose level Low): 66.9 fL
- Mono (60 mg/kg, 3 h, dose level Low): 1.6%
- PT (60 mg/kg, 3 h, dose level Low): 16.8 s
- Plat (60 mg/kg, 3 h, dose level Low): 125.7 x10_4/uL
- RBC (60 mg/kg, 3 h, dose level Low): 610.4 x10_4/ul
- Ret (60 mg/kg, 3 h, dose level Low): 8.6%
- WBC (60 mg/kg, 3 h, dose level Low): 69.8 x10_2/uL
- KIDNEY_L (60 mg/kg, 3 h, dose level Low): 0.9 g
- KIDNEY_R (60 mg/kg, 3 h, dose level Low): 1 g
- KIDNEY_TOTAL (60 mg/kg, 3 h, dose level Low): 1.9 g
- LIVER (60 mg/kg, 3 h, dose level Low): 9.5 g
- ALP (60 mg/kg, 3 h, dose level Low): 1527.8 IU/L
- AST (60 mg/kg, 3 h, dose level Low): 75.8 IU/L
- BUN (60 mg/kg, 3 h, dose level Low): 12.2 mg/dL
- CRE (60 mg/kg, 3 h, dose level Low): 0.2 mg/dL
- Ca (60 mg/kg, 3 h, dose level Low): 11.1 mg/dL
- Cl (60 mg/kg, 3 h, dose level Low): 111.6 meq/L
- DBIL (60 mg/kg, 3 h, dose level Low): 0 mg/dL
- GLC (60 mg/kg, 3 h, dose level Low): 184.6 mg/dL
- IP (60 mg/kg, 3 h, dose level Low): 9.6 mg/dL
- K (60 mg/kg, 3 h, dose level Low): 3.9 meq/L
- LDH (60 mg/kg, 3 h, dose level Low): 212.8 IU/L
- Na (60 mg/kg, 3 h, dose level Low): 141.4 meq/L
- PL (60 mg/kg, 3 h, dose level Low): 142.2 mg/dL
- RALB (60 mg/kg, 3 h, dose level Low): 3.4 g/dL
- TBIL (60 mg/kg, 3 h, dose level Low): 0.018 mg/dL
- TC (60 mg/kg, 3 h, dose level Low): 88 mg/dL
- TG (60 mg/kg, 3 h, dose level Low): 28.2 mg/dL
- TP (60 mg/kg, 3 h, dose level Low): 5.9 g/dL
- gamma-GTP (60 mg/kg, 3 h, dose level Low): 1.4 IU/L
- TERMINAL_BW (60 mg/kg, 6 h, dose level Low): 202.8 g
- APTT (60 mg/kg, 6 h, dose level Low): 23 s
- Bas (60 mg/kg, 6 h, dose level Low): 0%
- Eos (60 mg/kg, 6 h, dose level Low): 1%
- Fbg (60 mg/kg, 6 h, dose level Low): 336.6 mg/dL
- Ht (60 mg/kg, 6 h, dose level Low): 42.5%
- MCH (60 mg/kg, 6 h, dose level Low): 20.9 pg
- MCV (60 mg/kg, 6 h, dose level Low): 65.6 fL
- Mono (60 mg/kg, 6 h, dose level Low): 3%
- PT (60 mg/kg, 6 h, dose level Low): 16.8 s
- Plat (60 mg/kg, 6 h, dose level Low): 120.9 x10_4/uL
- RBC (60 mg/kg, 6 h, dose level Low): 648 x10_4/ul
- Ret (60 mg/kg, 6 h, dose level Low): 8.7%
- WBC (60 mg/kg, 6 h, dose level Low): 98.5 x10_2/uL
- KIDNEY_L (60 mg/kg, 6 h, dose level Low): 0.9 g
- KIDNEY_R (60 mg/kg, 6 h, dose level Low): 0.9 g
- KIDNEY_TOTAL (60 mg/kg, 6 h, dose level Low): 1.8 g
- LIVER (60 mg/kg, 6 h, dose level Low): 8.4 g
- ALP (60 mg/kg, 6 h, dose level Low): 1445.8 IU/L
- AST (60 mg/kg, 6 h, dose level Low): 72.8 IU/L
- BUN (60 mg/kg, 6 h, dose level Low): 11.8 mg/dL
- CRE (60 mg/kg, 6 h, dose level Low): 0.2 mg/dL
- Ca (60 mg/kg, 6 h, dose level Low): 11 mg/dL
- Cl (60 mg/kg, 6 h, dose level Low): 113 meq/L
- DBIL (60 mg/kg, 6 h, dose level Low): 0 mg/dL
- GLC (60 mg/kg, 6 h, dose level Low): 187.4 mg/dL
- IP (60 mg/kg, 6 h, dose level Low): 9.6 mg/dL
- K (60 mg/kg, 6 h, dose level Low): 4.2 meq/L
- LDH (60 mg/kg, 6 h, dose level Low): 177.4 IU/L
- Na (60 mg/kg, 6 h, dose level Low): 139.4 meq/L
- PL (60 mg/kg, 6 h, dose level Low): 138.2 mg/dL
- RALB (60 mg/kg, 6 h, dose level Low): 3.3 g/dL
- TBIL (60 mg/kg, 6 h, dose level Low): 0.024 mg/dL
- TC (60 mg/kg, 6 h, dose level Low): 83 mg/dL
- TG (60 mg/kg, 6 h, dose level Low): 27.2 mg/dL
- TP (60 mg/kg, 6 h, dose level Low): 5.9 g/dL
- gamma-GTP (60 mg/kg, 6 h, dose level Low): 1 IU/L
- TERMINAL_BW (60 mg/kg, 9 h, dose level Low): 205.8 g
- APTT (60 mg/kg, 9 h, dose level Low): 21.4 s
- Bas (60 mg/kg, 9 h, dose level Low): 0%
- Eos (60 mg/kg, 9 h, dose level Low): 0.8%
- Fbg (60 mg/kg, 9 h, dose level Low): 337.8 mg/dL
- Ht (60 mg/kg, 9 h, dose level Low): 41.7%
- MCH (60 mg/kg, 9 h, dose level Low): 20.5 pg
- MCHC (60 mg/kg, 9 h, dose level Low): 31.4%
- MCV (60 mg/kg, 9 h, dose level Low): 65.2 fL
- Mono (60 mg/kg, 9 h, dose level Low): 1.8%
- PT (60 mg/kg, 9 h, dose level Low): 16.7 s
- Plat (60 mg/kg, 9 h, dose level Low): 125.8 x10_4/uL
- RBC (60 mg/kg, 9 h, dose level Low): 640.2 x10_4/ul
- Ret (60 mg/kg, 9 h, dose level Low): 8.7%
- WBC (60 mg/kg, 9 h, dose level Low): 76.9 x10_2/uL
- KIDNEY_L (60 mg/kg, 9 h, dose level Low): 0.9 g
- KIDNEY_R (60 mg/kg, 9 h, dose level Low): 0.9 g
- KIDNEY_TOTAL (60 mg/kg, 9 h, dose level Low): 1.8 g
- LIVER (60 mg/kg, 9 h, dose level Low): 8.5 g
- ALP (60 mg/kg, 9 h, dose level Low): 1425.8 IU/L
- AST (60 mg/kg, 9 h, dose level Low): 59.8 IU/L
- BUN (60 mg/kg, 9 h, dose level Low): 13.8 mg/dL
- CRE (60 mg/kg, 9 h, dose level Low): 0.2 mg/dL
- Ca (60 mg/kg, 9 h, dose level Low): 11.1 mg/dL
- Cl (60 mg/kg, 9 h, dose level Low): 112.8 meq/L
- DBIL (60 mg/kg, 9 h, dose level Low): 0 mg/dL
- GLC (60 mg/kg, 9 h, dose level Low): 190.8 mg/dL
- IP (60 mg/kg, 9 h, dose level Low): 9.5 mg/dL
- K (60 mg/kg, 9 h, dose level Low): 4 meq/L
- LDH (60 mg/kg, 9 h, dose level Low): 158.2 IU/L
- Na (60 mg/kg, 9 h, dose level Low): 140 meq/L
- PL (60 mg/kg, 9 h, dose level Low): 133.4 mg/dL
- RALB (60 mg/kg, 9 h, dose level Low): 3.3 g/dL
- TBIL (60 mg/kg, 9 h, dose level Low): 0.026 mg/dL
- TC (60 mg/kg, 9 h, dose level Low): 81.8 mg/dL
- TG (60 mg/kg, 9 h, dose level Low): 35.4 mg/dL
- TP (60 mg/kg, 9 h, dose level Low): 5.9 g/dL
- gamma-GTP (60 mg/kg, 9 h, dose level Low): 1 IU/L
- TERMINAL_BW (60 mg/kg, 24 h, dose level Low): 217.9 g
- APTT (60 mg/kg, 24 h, dose level Low): 20.2 s
- Bas (60 mg/kg, 24 h, dose level Low): 0%
- Eos (60 mg/kg, 24 h, dose level Low): 0.8%
- Fbg (60 mg/kg, 24 h, dose level Low): 303.8 mg/dL
- Ht (60 mg/kg, 24 h, dose level Low): 40.5%
- MCH (60 mg/kg, 24 h, dose level Low): 20.9 pg
- MCHC (60 mg/kg, 24 h, dose level Low): 33.3%
- MCV (60 mg/kg, 24 h, dose level Low): 62.6 fL
- Mono (60 mg/kg, 24 h, dose level Low): 1.6%
- PT (60 mg/kg, 24 h, dose level Low): 16.7 s
- Plat (60 mg/kg, 24 h, dose level Low): 117.7 x10_4/uL
- RBC (60 mg/kg, 24 h, dose level Low): 647 x10_4/ul
- Ret (60 mg/kg, 24 h, dose level Low): 7.7%
- WBC (60 mg/kg, 24 h, dose level Low): 86.4 x10_2/uL
- KIDNEY_L (60 mg/kg, 24 h, dose level Low): 0.9 g
- KIDNEY_R (60 mg/kg, 24 h, dose level Low): 1 g
- KIDNEY_TOTAL (60 mg/kg, 24 h, dose level Low): 1.9 g
- LIVER (60 mg/kg, 24 h, dose level Low): 9.8 g
- ALP (60 mg/kg, 24 h, dose level Low): 1708.2 IU/L
- AST (60 mg/kg, 24 h, dose level Low): 61.2 IU/L
- BUN (60 mg/kg, 24 h, dose level Low): 20 mg/dL
- CRE (60 mg/kg, 24 h, dose level Low): 0.1 mg/dL
- Ca (60 mg/kg, 24 h, dose level Low): 10.9 mg/dL
- Cl (60 mg/kg, 24 h, dose level Low): 106.8 meq/L
- DBIL (60 mg/kg, 24 h, dose level Low): 0 mg/dL
- GLC (60 mg/kg, 24 h, dose level Low): 179.4 mg/dL
- IP (60 mg/kg, 24 h, dose level Low): 7.5 mg/dL
- K (60 mg/kg, 24 h, dose level Low): 4 meq/L
- LDH (60 mg/kg, 24 h, dose level Low): 156.8 IU/L
- Na (60 mg/kg, 24 h, dose level Low): 142.6 meq/L
- PL (60 mg/kg, 24 h, dose level Low): 136.2 mg/dL
- RALB (60 mg/kg, 24 h, dose level Low): 3.2 g/dL
- TBIL (60 mg/kg, 24 h, dose level Low): 0.01 mg/dL
- TC (60 mg/kg, 24 h, dose level Low): 73.2 mg/dL
- TG (60 mg/kg, 24 h, dose level Low): 109.6 mg/dL
